Test results published in patent publication US12692269B2, “Therapeutic compounds” (Genentech, Inc., priority 2019, dated 2026).

What was measured:
Type in all cases: binding
[1] = target: TEAD1 TAZ (amino acids 13-57) (Homo sapiens, UniProt P28347); test: TEAD1-TAZ HTRF (TR-FRET) protein-protein interaction assay
How it was run: (§1)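 TEAD YBD (aa 217-447, His-tag) + Eu anti-His; cpd 30 min; + biotin-YAP 50-100 or biotin-TAZ 13-57 / SA-XL665; 60 min RT; TR-FRET 665/615; 4-parameter IC50/EC50.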

TEAD1 YAP50-100 = TEAD1 YAP50-100 (Homo sapiens, UniProt P28347); test: TEAD1-YAP HTRF (TR-FRET) protein-protein interaction assay; conditions: TEAD1, YAP peptide 50-100, HTRF
How it was run: as §1

[2] = target: TEAD2 TAZ (amino acids 13-57) (Homo sapiens, UniProt Q15562); test: TEAD2-TAZ HTRF (TR-FRET) protein-protein interaction assay
How it was run: as §1

[3] = target: TEAD3 TAZ (amino acids 13-57) (Homo sapiens, UniProt Q99594); test: TEAD3-TAZ HTRF (TR-FRET) protein-protein interaction assay
How it was run: as §1

TEAD2 YAP50-100 = TEAD2 YAP50-100 (Homo sapiens, UniProt Q15562); test: TEAD2-YAP HTRF (TR-FRET) protein-protein interaction assay; conditions: TEAD2, YAP peptide 50-100, HTRF
How it was run: as §1

TEAD4 YAP50-100 = TEAD4 YAP50-100 (Homo sapiens, UniProt Q15561); test: TEAD4-YAP HTRF (TR-FRET) protein-protein interaction assay; conditions: TEAD4, YAP peptide 50-100, HTRF
How it was run: as §1

[4] = target: TEAD4 TAZ (amino acids 13-57) (Homo sapiens, UniProt Q15561); test: TEAD4-TAZ HTRF (TR-FRET) protein-protein interaction assay
How it was run: as §1

TEAD3 YAP50-100 = TEAD3 YAP50-100 (Homo sapiens, UniProt Q99594); test: TEAD3-YAP HTRF (TR-FRET) protein-protein interaction assay; conditions: TEAD3, YAP peptide 50-100, HTRF
How it was run: as §1

Chain of TEAD4 YAP50-100 (Q15561 217-434 limits assumed): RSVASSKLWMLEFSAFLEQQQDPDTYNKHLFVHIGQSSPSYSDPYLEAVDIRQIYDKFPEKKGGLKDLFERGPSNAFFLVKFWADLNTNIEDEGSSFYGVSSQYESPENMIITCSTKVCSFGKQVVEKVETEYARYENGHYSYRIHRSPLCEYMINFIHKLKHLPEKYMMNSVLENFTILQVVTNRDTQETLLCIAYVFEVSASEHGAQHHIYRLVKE
Chain of TEAD4 TAZ (amino acids 13-57) (Q15561 217-434 limits assumed): as above
Chain of TEAD1 TAZ (amino acids 13-57) (P28347 167-426 limits assumed): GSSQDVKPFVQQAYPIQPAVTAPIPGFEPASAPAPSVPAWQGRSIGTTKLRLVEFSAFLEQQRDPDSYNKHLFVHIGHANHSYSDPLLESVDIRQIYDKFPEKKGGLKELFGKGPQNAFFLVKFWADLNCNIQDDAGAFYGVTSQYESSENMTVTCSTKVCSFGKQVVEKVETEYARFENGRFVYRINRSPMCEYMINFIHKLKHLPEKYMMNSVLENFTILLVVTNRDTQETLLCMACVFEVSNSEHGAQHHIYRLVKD
Chain of TEAD1 YAP50-100 (P28347 167-426 limits assumed): as above
Chain of TEAD2 TAZ (amino acids 13-57) (Q15562 217-447): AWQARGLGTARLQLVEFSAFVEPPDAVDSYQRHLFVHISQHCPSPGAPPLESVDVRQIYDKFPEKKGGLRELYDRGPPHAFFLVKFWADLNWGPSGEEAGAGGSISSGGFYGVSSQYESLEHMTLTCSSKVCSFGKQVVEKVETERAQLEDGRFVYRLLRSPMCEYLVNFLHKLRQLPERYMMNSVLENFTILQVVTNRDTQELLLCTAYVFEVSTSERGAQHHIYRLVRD
Chain of TEAD2 YAP50-100 (Q15562 217-447): as above
Chain of TEAD3 YAP50-100 (Q99594 173-435 limits assumed): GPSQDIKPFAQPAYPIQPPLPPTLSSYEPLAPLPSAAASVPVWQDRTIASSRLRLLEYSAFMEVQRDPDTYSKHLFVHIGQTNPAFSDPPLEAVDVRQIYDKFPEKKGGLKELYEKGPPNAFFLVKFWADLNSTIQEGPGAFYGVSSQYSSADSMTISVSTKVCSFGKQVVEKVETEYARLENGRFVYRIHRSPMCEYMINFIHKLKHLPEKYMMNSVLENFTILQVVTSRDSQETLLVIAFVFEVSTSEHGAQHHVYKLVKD
Chain of TEAD3 TAZ (amino acids 13-57) (Q99594 173-435 limits assumed): as above

Cc1nccnc1-c1nn2c(=O)cc(-c3ccc(C4CCCCC4)c(F)c3)[nH]c2c1C(=O)N1CC(CF)C1 [Compound 21, 5-(4-cyclohexyl-3-fluorophenyl)-3-(3-(fluoromethyl)azetidine-1-carbonyl)-2-(3-methylpyrazin-2-yl)pyrazolo[1,5-a]pyrimidin-7(4H)-one] was tested, and the “TEAD1 TAZ HTRF combined: Max % Inhibition” value ([1]; TEAD1, TAZ peptide, HTRF) was 71.5%, the EC50 ([1]; TEAD1-TAZ HTRF, TR-FRET 665 nm/615 nm, read-out: TEAD1 TAZ HTRF combined: EC50) was 40 nM and the “TEAD1 YAP50-100 HTRF combined: Max % Inhibition” value (TEAD1 YAP50-100) was 74.0%. For the same compound, the EC50 (TEAD1 YAP50-100; read-out: TEAD1 YAP50-100 HTRF combined: EC50) was 40 nM, the “TEAD2 TAZ HTRF combined: Max % Inhibition” value ([2]; TEAD2, TAZ peptide, HTRF) was 61.5% and the EC50 ([2]; TEAD2-TAZ HTRF, TR-FRET 665 nm/615 nm, read-out: TEAD2 TAZ HTRF combined: EC50) was 10 nM. For the same compound, the “TEAD3 TAZ HTRF combined: Max % Inhibition” value ([3]; TEAD3, TAZ peptide, HTRF) was 69.5%, the EC50 ([3]; TEAD3-TAZ HTRF, TR-FRET 665 nm/615 nm, read-out: TEAD3 TAZ HTRF combined: EC50) was 90 nM and the “TEAD2 YAP50-100 HTRF combined: Max % Inhibition” value (TEAD2 YAP50-100) was 62.5%. For the same compound, the EC50 (TEAD2 YAP50-100; read-out: TEAD2 YAP50-100 HTRF combined: EC50) was 10 nM, the “TEAD4 YAP50-100 HTRF combined: Max % Inhibition” value (TEAD4 YAP50-100) was 49.5% and the EC50 (TEAD4 YAP50-100; read-out: TEAD4 YAP50-100 HTRF combined: EC50) was 30 nM. The “TEAD4 TAZ HTRF combined: Max % Inhibition” value ([4]; TEAD4, TAZ peptide, HTRF) was 51.0%, the EC50 ([4]; TEAD4-TAZ HTRF, TR-FRET 665 nm/615 nm, read-out: TEAD4 TAZ HTRF combined: EC50) was 30 nM and the “TEAD3 YAP50-100 HTRF combined: Max % Inhibition” value (TEAD3 YAP50-100) was 69.5%. It also gave an EC50 (TEAD3 YAP50-100; read-out: TEAD3 YAP50-100 HTRF combined: EC50) of 80 nM.
